Assay results as given in patent US12378249B2, “Isoquinoline compounds and uses thereof” (Genentech, Inc., priority 2018, dated 2025).

Molecular target: HPK1 (Homo sapiens (Human), UniProt Q92918, S171E/T165E)
Test: HPK1-FL HTRF Enzymatic Assay (HTRF)
Assay type: biochemical
Settings: HPK full length T165E S171E 0.125 nM, ATP 1 mM, Biotin-SLP76 100 nM, read-out: HPK1 Ki (nM), H = HTRF
Procedure, shortened: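 Ki derived from % activity calculated from the TR-FRET 665/620 ratio, using Eu-anti-pSLP76 and SA-XL665 detection added for 60 min. Reaction: compound preincubated 30 min with full-length double-mutant HPK1, then 60 min with Biotin-SLP-76 and 1 mM ATP, pH 7.5 HEPES buffer.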

Sequence of HPK1 (Q92918 whole entry T165E/S171E): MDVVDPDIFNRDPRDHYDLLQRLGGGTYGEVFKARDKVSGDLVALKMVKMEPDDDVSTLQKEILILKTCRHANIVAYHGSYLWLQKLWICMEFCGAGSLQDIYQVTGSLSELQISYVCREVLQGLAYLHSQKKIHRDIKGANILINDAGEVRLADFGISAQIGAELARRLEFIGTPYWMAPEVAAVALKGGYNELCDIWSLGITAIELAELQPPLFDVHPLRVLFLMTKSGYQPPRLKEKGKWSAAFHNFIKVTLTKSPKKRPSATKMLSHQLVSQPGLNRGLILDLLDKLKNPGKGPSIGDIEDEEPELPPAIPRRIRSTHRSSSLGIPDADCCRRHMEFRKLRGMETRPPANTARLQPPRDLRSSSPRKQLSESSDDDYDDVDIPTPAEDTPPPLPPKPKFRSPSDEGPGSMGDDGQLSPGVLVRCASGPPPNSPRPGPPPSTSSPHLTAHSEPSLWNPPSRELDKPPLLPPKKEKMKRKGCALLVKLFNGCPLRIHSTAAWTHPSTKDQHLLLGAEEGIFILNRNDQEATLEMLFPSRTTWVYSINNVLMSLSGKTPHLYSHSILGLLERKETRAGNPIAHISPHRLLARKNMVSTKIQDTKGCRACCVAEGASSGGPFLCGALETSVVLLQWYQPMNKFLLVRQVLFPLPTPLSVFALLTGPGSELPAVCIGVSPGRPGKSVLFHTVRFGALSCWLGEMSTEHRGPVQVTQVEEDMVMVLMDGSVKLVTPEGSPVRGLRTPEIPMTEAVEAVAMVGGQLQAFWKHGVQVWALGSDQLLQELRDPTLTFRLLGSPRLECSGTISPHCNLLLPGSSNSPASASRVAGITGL

Row | SMILES | Ki [nM]
1 | Cc1c(-c2cc3cc(Nc4cc5n(n4)CC(=O)N(C)CC5)ncc3cc2F)cnc2c1NCCC2(F)F [Compound 208, 2-((6-(8,8-difluoro-4-methyl-5,6,7,8-tetrahydro-1,5-naphthyridin-3-yl)-7-fluoroisoquinolin-3-yl)amino)-6-methyl-5,6-dihydro-4H-pyrazolo[1,5-d][1,4]diazepin-7(8H)-one] | 0.02
2 | Cc1c(-c2cc3cc(Nc4cc5n(n4)CC(=O)N(C)CC5)ncc3cc2F)cnc2c(=O)n(C)[nH]c12 [Compound 209, 2-((6-(2,7-dimethyl-3-oxo-2,3-dihydro-1H-pyrazolo[4,3-b]pyridin-6-yl)-7-fluoroisoquinolin-3-yl)amino)-6-methyl-5,6-dihydro-4H-pyrazolo[1,5-d][1,4]diazepin-7(8H)-one] | 1.9
3 | CNCc1cncc(-c2cc3cc(Nc4cc5n(n4)CC(=O)N(C)CC5)ncc3cc2F)c1C [Compound 210, 2-((7-fluoro-6-(4-methyl-5-((methylamino)methyl)pyridin-3-yl)isoquinolin-3-yl)amino)-6-methyl-5,6-dihydro-4H-pyrazolo[1,5-d][1,4]diazepin-7(8H)-one] | 37
4 | Cc1c(CN)cncc1-c1cc2cc(Nc3cc4n(n3)CC(=O)N(C)CC4)ncc2cc1F [Compound 211, 2-((6-(5-(aminomethyl)-4-methylpyridin-3-yl)-7-fluoroisoquinolin-3-yl)amino)-6-methyl-5,6-dihydro-4H-pyrazolo[1,5-d][1,4]diazepin-7(8H)-one] | 19
5 | Cc1cc(CN)ncc1-c1cc2cc(Nc3cc4n(n3)CC(=O)N(C)CC4)ncc2cc1F [Compound 212, 2-((6-(6-(aminomethyl)-4-methylpyridin-3-yl)-7-fluoroisoquinolin-3-yl)amino)-6-methyl-5,6-dihydro-4H-pyrazolo[1,5-d][1,4]diazepin-7(8H)-one] | 50
6 | Cc1cc(CN)ccc1-c1cc2cc(Nc3cc4n(n3)CC(=O)N(C)CC4)ncc2cc1F [Compound 213, 2-((6-(4-(aminomethyl)-2-methylphenyl)-7-fluoroisoquinolin-3-yl)amino)-6-methyl-5,6-dihydro-4H-pyrazolo[1,5-d][1,4]diazepin-7(8H)-one] | 25
7 | CN1CCc2cc(Nc3cc4cc(-c5cccc6c5CNC6)c(F)cc4cn3)nn2CC1=O [Compound 215, 2-((7-fluoro-6-(isoindolin-4-yl)isoquinolin-3-yl)amino)-6-methyl-5,6-dihydro-4H-pyrazolo[1,5-d][1,4]diazepin-7(8H)-one] | 364
8 | Cc1c(N)cnnc1-c1cc2cc(Nc3cc4n(n3)CC(=O)N(C)CC4)ncc2cc1F [Compound 216, 2-((6-(5-amino-4-methylpyridazin-3-yl)-7-fluoroisoquinolin-3-yl)amino)-6-methyl-5,6-dihydro-4H-pyrazolo[1,5-d][1,4]diazepin-7(8H)-one] | 2.3
9 | CNCc1cccc(-c2cc3cc(Nc4cc5n(n4)CC(=O)N(C)CC5)ncc3cc2F)c1C [Compound 217, 2-((7-fluoro-6-(2-methyl-3-((methylamino)methyl)phenyl)isoquinolin-3-yl)amino)-6-methyl-5,6-dihydro-4H-pyrazolo[1,5-d][1,4]diazepin-7(8H)-one] | 64
10 | CNCc1ccc(F)c(-c2ccc3cnc(Nc4cc5n(n4)CC(=O)N(C)CC5)cc3c2)c1C [Compound 219, 2-((6-(6-fluoro-2-methyl-3-((methylamino)methyl)phenyl)isoquinolin-3-yl)amino)-6-methyl-5,6-dihydro-4H-pyrazolo[1,5-d][1,4]diazepin-7(8H)-one] | 7
11 | CNCc1cc(-c2ccc3cnc(Nc4cc5n(n4)CC(=O)N(C)CC5)cc3c2)c(F)cc1C [Compound 220, 2-((6-(2-fluoro-4-methyl-5-((methylamino)methyl)phenyl)isoquinolin-3-yl)amino)-6-methyl-5,6-dihydro-4H-pyrazolo[1,5-d][1,4]diazepin-7(8H)-one] | 176
